The text below walks through data of patent publication US20100074897A1, “Methods and Compositions related to HIF-1 alpha” (University of Utah Research Foundation, priority 2006, published 2010).

The subject of assay [1] is NBS1. Description: NBS1 mRNA levels by real-time PCR in HCT116 cells. The format is cell-based, human. The following applies: siRNA, hypoxia 1% O2 16 h. As to the method: HCT116 TP53^+/+, HCT116 TP53^−/− cells (Koshiji et al., 2004), and U-2 OS were grown in McCoy's 5A medium (Invitrogen), and HeLa cells in DMEM. For hypoxic treatment, cells were incubated in a hypoxic chamber (Innova CO-48, New Brunswick Scientific) maintaining 1% O2 and 5% CO2. Recombinant adenovirus generation and infection were as previously described (Koshiji et al., 2004).
Total RNA extraction, reverse transcription, and quantitative PCR were performed essentially as described previously (Koshiji et al., 2005). Taqman Gene Expression Assay kits for NBS1, MRE11A, RAD50, MSH2, and ACTB were purchased from Applied Biosystems. All experiments were repeated three times in triplicates, and representative results were presented as means±standard errors.

For another assay, the system named is CDC25A. In words: CDC25A and PGK1 mRNA by real-time RT-PCR in siRNA-transfected HCT116 cells. The format is cell-based, human. The following applies: siRNA 24 h then hypoxia 16 h. As to the method:
Real-Time RT-PCR. Real-time RT-PCR was performed essentially as described previously (Koshiji et al. 2005). Primer and probe (Applied Biosystems) sequences were as follows: CDC25A, forward 5′-[…]-3′ (SEQ ID NO: 25), reverse 5′-[…]-3′ (SEQ ID NO: 26), probe 5′-FAM-[…]-MGB-3′ (SEQ ID NO: 27). PGK-1 (FAM-MGB probe) and ACTB (VIC-MGB probe) were detected with endogenous control reagents from Applied Biosystems. β-actin primers and probe were included into each reaction for normalization. All the experiments were repeated three times in triplicate, and representative results were presented in mean±standard error.
(§1) RNA Interference. Transfection with siRNA duplexes and siRNA sequence information were described previously (Koshiji et al. 2005). CHK1 siRNA was described previously (Zhao et al. 2002). Luciferase siRNA was used as negative control.
For orientation: Real-time PCR tracks product formation cycle by cycle.

In a further assay the test system is HIF-2α. Description: Western blot after siRNA transfection of HCT116 cells. The format is cell-based, human. As to the method: (§2) Western Blot. Western blot analysis was carried out as described previously.
as §1
In general terms: Immunoblotting shows a protein as a band on a membrane.

The next assay concerns HIF-1α. The description is as above. The format is cell-based, human. As to the method:
as §2, §1

The next assay has as its system CDC25A promoter. Description: CDC25A reporter (luciferase) assay in HCT116 cells. The following applies: hypoxia. The format is cell-based, human. On the procedure: Reporter Assay. Reporter assays were conducted as described previously (Huang et al. 2002). The Myc effect on the reporter was examined by cotransfection with 0.4 μg pMyc (Koshiji et al. 2004a) or as specified.

In assay [2] the test system is NBS1. Description: NBS1 protein levels by immunoblot in U-2 OS cells expressing PAS-B variants. The format is cell-based. The following applies: forced expression in U-2 OS cells. On the procedure: Immunoprecipitations and Western blot was performed essentially as described previously (Huang et al., 1998; Koshiji et al., 2005). In vitro translation and immunoprecipitations are described as before (Gu et al., 2001; Koshiji et al., 2005). The wheat germ extract system was purchased from Promega. λ protein phosphatase (New England Biolabs) and resveratrol (Sigma) with indicated concentrations were added to the in vitro translated products before immunoprecipitations.
U-2 OS cells were transfected with the Nucleofector system (Amaxa). Briefly, 1×10^6 cells were suspended in 100 μl pre-warmed Nucleofector Solution Kit V containing 2 μg plasmids. After electroporation the cells were transferred immediately into pre-warmed complete McCoy's 5A medium and seeded in 6-well plates. Cells were harvested 48 h after transfection.

The subject of assay [3] is U-2 OS cells. In words: tumor formation in a xenografted mouse model. The format is in vivo. The conditions noted are these: athymic mice, subcutaneous injection of 1 million U-2 OS cells, within three weeks. The text has this:
Female BALB/c-nu/nu mice were subjected to bilateral, subcutaneous injections in the back with 1 million of U-2 OS cells, or those expressing EYFP, HIF-1α PAS-B, or the HIF-1α PAS-B mutant. A total of ten mice were divided into two groups with one type of cells injected on one side and another on the other side.

Another assay has as its system β-catenin. In words: immunoblotting of epithelial marker in retrovirally infected U-2 OS cells. The format is cell-based. On the procedure: A, Cells as indicated were infected by retroviruses expressing EYFP, EYFP-PAS-B fusion, and EYFP-PAS-B mutant. […] B, U-2 OS and those infected with retroviruses as above were analyzed by immunoblotting individual protein expression as indicated.

Assay [4] has as its system U-2 OS cells. Description: immunofluorescent staining of γ-H2AX foci (DNA DSBs). The format is cell-based. The following applies: U-2 OS cells transiently expressing PAS-B variants. As to the method: To ascertain the functional relevance of NBS1 repression by hypoxia, the extent of DNA damage was assessed by immunofluorescent staining of γ-H2AX foci, a most sensitive method for quantifying DNA DSBs (Rogakou et al, 1998, 1999). […] Furthermore, results also show strikingly colocalized foci of γ-H2AX and 53BP1, the latter of which is known to interact with various DNA repair proteins including γ-H2AX in response to DSBs (Schultz et al, 2000). Thus, hypoxic cells experience DNA DSBs, presumably resulting from the NBS1 repression.
Immunofluorescence staining was performed essentially as described previously (Rogakou et al, 1999) with mouse anti-γ-H2AX antibody (Upstate) and rabbit anti-53BP1 (Novus Biologicals). Secondary antibodies were anti-mouse Alexa-546 and anti-rabbit Alexa-488 (Molecular Probes). Samples were mounted in antifade media, and were examined by fluorescent and laser-scanning confocal microscopy with a Nikon PCM 2000.

Assay [5] has as its system U-2 OS cells. In words: anchorage-independent growth on soft agar. The format is cell-based. The following applies: retrovirally infected U-2 OS cells. On the procedure:
(§3) A, retrovirally infected HCT116 cells expressing EYFP, HIF-1α PAS-B, and mutant were assayed for Matrigel invasion. Images of cells on the membrane side were taken 24 h later. B, U-2 OS cells infected as above were assayed for anchorage-independent growth on soft agar. HIF-1α PAS-B expressed cells gave rise to formation of colonies 40 times more than others. HCT116 cells (known to grow on soft agar) were used as a positive control. Mock, uninfected cells.

A further assay relates to HCT116 cells. Description: Matrigel invasion. The format is cell-based, human. The following applies: retrovirally infected HCT116 cells, 24 h. As to the method:
as §3

For the next assay, the target named is T1, Sp1 (Oryctolagus cuniculus, UniProt G1SL61).
T1 construct: from tissue; host or cells: rabbit reticulocyte lysate (in vitro translation system)
T1 sequence (G1SL61 1-788): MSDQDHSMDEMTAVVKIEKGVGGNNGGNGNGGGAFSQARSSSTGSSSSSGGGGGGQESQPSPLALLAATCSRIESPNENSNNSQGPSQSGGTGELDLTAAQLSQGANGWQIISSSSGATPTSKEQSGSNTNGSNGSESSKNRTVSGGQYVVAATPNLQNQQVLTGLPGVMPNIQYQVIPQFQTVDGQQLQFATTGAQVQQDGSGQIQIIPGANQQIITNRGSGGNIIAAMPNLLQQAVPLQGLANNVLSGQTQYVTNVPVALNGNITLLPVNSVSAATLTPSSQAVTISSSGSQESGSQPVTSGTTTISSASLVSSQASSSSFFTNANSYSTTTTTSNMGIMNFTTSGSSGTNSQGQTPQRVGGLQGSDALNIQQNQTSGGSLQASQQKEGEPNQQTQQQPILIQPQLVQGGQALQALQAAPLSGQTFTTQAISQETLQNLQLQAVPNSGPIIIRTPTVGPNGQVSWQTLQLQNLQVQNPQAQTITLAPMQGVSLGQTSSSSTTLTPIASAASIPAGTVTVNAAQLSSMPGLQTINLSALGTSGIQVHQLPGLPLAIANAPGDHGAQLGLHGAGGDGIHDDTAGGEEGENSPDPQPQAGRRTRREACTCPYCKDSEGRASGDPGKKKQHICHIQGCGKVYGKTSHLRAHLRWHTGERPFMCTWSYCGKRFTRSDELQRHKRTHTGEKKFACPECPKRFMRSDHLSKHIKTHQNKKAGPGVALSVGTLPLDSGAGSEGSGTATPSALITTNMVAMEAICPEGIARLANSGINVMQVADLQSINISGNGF
Description: anti-Sp1 immunoprecipitation of in vitro translated products. The format is binding, rabbit. The following applies: translated in rabbit reticulocyte lysate. As to the method: Previously, it was shown that Myc displacement is mediated by the N-terminal HIF-1α (1-329), which competes with Myc for Sp1 binding in the MSH2 promoter (Koshiji et al, 2005). […] […] […] Of note, removal of part of the PAS-B from the C terminus (codon 299-329) destroyed Sp1 binding.
Immunoprecipitations and Western blot was performed essentially as described previously (Huang et al., 1998; Koshiji et al., 2005). In vitro translation and immunoprecipitations are described as before (Gu et al., 2001; Koshiji et al., 2005). […]

As for “5′-AACTGATGACCAGCAACTTGA-3′ [HIF1A siRNA]”, the “effect on NBS1 and MSH2 downregulation and PGK1 upregulation in hypoxic cells” value in the assay with NBS1 [1] is “abrogated”. Further, the “effect on hypoxic CDC25A down-regulation and PGK1 up-regulation” value with CDC25A is given as “effectively blocked the CDC25A down-regulation”. The HIF-2α levels entry in the assay with HIF-2α was “remained unaffected”. Also, the “decrease of HIF-1α protein levels” value in the assay with HIF-1α is given as above 80%. Also, in the assay with CDC25A promoter, the “hypoxic inhibition of CDC25A reporter expression” value is “abrogated”.

For “PAS1B: HIF-1α PAS-B domain (codon 194-329)”, the NBS1 protein levels result with NBS1 [2] is listed as “sufficient to eliminate NBS1 protein levels”. In addition, the tumor nodules formation entry in the assay on U-2 OS cells [3] is on record as “formed tumor nodules”. For the same substance, the β-catenin protein expression entry in the assay on β-catenin is listed as “marked decrease”. Besides, the “γ-H2AX foci colocalized with 53BP1” value with U-2 OS cells [4] was “significantly increased”. Moreover, the “formation of colonies on soft agar relative to others” value in the assay on U-2 OS cells [5] was determined as 40 times. For the same substance, the invasiveness versus controls entry with HCT116 cells is listed as “much more invasive”. The Sp1 binding entry with Sp1 is on record as “sufficient for Sp1 interaction”.
